# Results as given in patent US7271278B2, “Application of chromium-amino acid complexes in the treatment of diabetes and other diseases” (The University of Wyoming, priority 2005, dated 2007).
# Key:
# ob/ob(+/+) mice [1] = experiment: Insulin-challenge test in ob/ob(+/+) and lean mice; type: in vivo, mouse; conditions: vs vehicle-treated group
# Source text: All animal treatment procedures described in this study were approved by the Animal Care and Use Committee at University of Wyoming (Laramie, Wyo.). Homozygous B6.Vlep/J male mice purchased from the Jackson Laboratory (Bar Harbor, Me.) at age 5 weeks were divided randomly into two weight-matched groups, marked as ob/ob(+/+) control and ob/ob(+/+) treatment (n=12). Number and age-matched normal C57 mice were used as lean control. All animals were maintained on conventional laboratory diet under well-controlled conditions of temperature (22±2° C.), humidity (55±5%) and 12 hours/12 hours light-dark cycle and had ad libitum access to water and standard rodent chow. Cr(D-Phe)3 was provided in the drinking water and, on the basis of water intake, was administered to provide an intake of about 150 μg/kg/day corresponding to about 10-15 μg elemental Cr/kg/day) for ob/ob(+/+) and lean treatment groups. […] The livers of these mice were frozen in liquid nitrogen immediately and stored at −80° C. until use. […] Weights of body and other organs were measured with a standard laboratory scale.
# At the end of the treatment schedule, mice were given intraperitoneal injections of insulin (1 U/kg body weight). Blood glucose levels were determined by the tail-clip method at different time points as described hereinabove.
# [2] = Body and organ weight of ob/ob(+/+) mice after 6-week treatment; type: in vivo, mouse
# Source text: All animal treatment procedures described in this example were approved by the animal Care and Use Committee at University of Wyoming (Laramie, Wyo.). Homozygous B6.V-lep ob>/J male mice purchased from the Jackson Laboratory (Bar Harbor, Me.) at age 5 weeks were divided randomly into two weight-matched groups, marked as ob/ob(+/+) control and ob/ob(+/+) treatment (n=10). Number, age and weight matched normal C57 mice were used as lean control. All of these animals were maintained on conventional laboratory diet under well-controlled conditions of temperature (22±2° C.), humidity (55±5%) and 12 hour/12 hour light-dark cycle and had ad libitum access to water and standard rodent chow. Rodent diet and tap water were consumed by mice ad libitum. Cr(pa)3 was provided in the drinking water and, on the basis of water intake, was administered to provide an intake of about 150 μg/kg/day corresponding to about 10-15 μg elemental Cr/kg/day for ob/ob(+/+) and lean treatment groups. The dosage of chromium used was based on earlier animal studies reported with chromium picolinate (Cefalu et al. (2002) J. Nutr., 132:1107-1114).
# All animal treatment procedures described in this study were approved by the Animal Care and Use Committee at University of Wyoming (Laramie, Wyo.). […] Weights of body and other organs were measured with a standard laboratory scale.
# pUC19 DNA = experiment: Ascorbate-stimulated cleavage of pUC19 DNA; conditions: 1.2 μM, ascorbic acid, pUC19 DNA 38 μM
# Protocol: DNA cleavage-stimulated by chromium compounds was assessed as described previously (Speetjens et al. (1999) Chem. Res. Toxicol., 12:483-487). All solutions were prepared using Chelex-100 treated water to remove any traces of metal ions. […] Reactions were allowed to proceed 60 minutes at room temperature followed by quenching with 2 μl of nucleic acid sample loading buffer. The mixtures were loaded directly onto a 1% agarose gel pre-stained by ethidium bromide and electrophoresed at 60 V. The gels were photographed on a UV transilluminator.
# ob/ob(+/+) mice [3] = experiment: Lipid-peroxidation (malondialdehyde) and protein carbonyl in liver homogenate of treated mice; type: in vivo, mouse; conditions: obese mice, 150 μg/kg/day 6 weeks, vs untreated obese
# Source text: All animal treatment procedures described in this study were approved by the Animal Care and Use Committee at University of Wyoming (Laramie, Wyo.). Homozygous B6.Vlep/J male mice purchased from the Jackson Laboratory (Bar Harbor, Me.) at age 5 weeks were divided randomly into two weight-matched groups, marked as ob/ob(+/+) control and ob/ob(+/+) treatment (n=12). Number and age-matched normal C57 mice were used as lean control. All animals were maintained on conventional laboratory diet under well-controlled conditions of temperature (22±2° C.), humidity (55±5%) and 12 hours/12 hours light-dark cycle and had ad libitum access to water and standard rodent chow. […] Weights of body and other organs were measured with a standard laboratory scale.
# The end product of lipid-peroxidation, namely malondialdehyde (MDA), was estimated in the liver tissue homogenates by the colorimetric kit (Bioxytech LPO-586, Portland, Oreg.) using 1,1,3,3-tetra-ethoxypropane as a standard according to the manufacturer's specifications. This assay is based on the reaction of a chromogenic reagent N-methyl-2-phenylindole with MDA at 45° C. which yields a stable chromophore with absorbance maxima at 586 nm. […]
# 3T3-adipocytes = experiment: 2-deoxy-D-[3H] glucose uptake in 3T3-L1 adipocytes; type: cell-based, mouse
# Protocol: (§1) The 3T3-L1-pre-adipocytes were obtained from the American Type Culture Collection and were propagated at 37° C. in DMEM with 10% newborn calf serum plus 50 U/ml penicillin and 50 μg/ml streptomycin in an incubator under a humidified atmosphere of 5% CO2/95% air. Induction of differentiation was done one day post-confluence. Cells were maintained in differentiation medium of the following composition: DMEM, 10% FBS, […] dexamethasone, 0.5 mM 1-isobutyl-3-methylxanthine (IBMX) and ITS for three days. At day 3, the dexamethasone and IBMX were removed with ITS remaining on the cells for an additional two days. Differentiation was allowed to continue in DMEM supplemented with 10% FBS, ITS and the adipocytes were used between day 9 and 14 post-induction. Prior to the cellular assays, cells were serum starved by overnight incubation in DMEM (containing 0.2% serum).
# Glucose uptake activity was analyzed by measuring the uptake of 2-deoxy-D-[^3H] glucose as described previously (Sakoda et al. (1999) Diabetes, 48:1365-1371). Briefly, confluent 3T3-L1 adipocytes grown in 6-well plates were washed twice with serum-free DMEM and incubated with 2 ml of the same medium at 37° C. for 2 hours. The cells were washed 3 times with Krebs-Ringer-HEPES (KRH) buffer and incubated with 2 ml KRH buffer at 37° C. for 30 minutes. Insulin (6 nM) and/or Cr(pa)3 (0-25 μM) were then added to adipocytes accompanying the procedure of differentiation. Glucose uptake was initiated by the addition of 0.1 ml KRH buffer and 2-deoxy-D-[^3H] glucose (0.2 μCi/ml) and 5 mM glucose as final concentrations. Glucose uptake was terminated by washing the cells three times with cold PBS. The cells were lysed overnight with 1 ml 0.5M NaOH and 0.1% SDS (w/v). The radioactivity retained by the cell lysates was determined by a scintillation counter (Beckmann LC 6000IC) and normalized to protein amount measured with a Micro BCA Protein Assay Kit (Pierce Chemical, Rockford, Ill.).
# Akt = experiment: Hepatic Akt and insulin receptor phosphorylation, Western blot of liver homogenates; type: in vivo, mouse; conditions: obese mice
# Source text: All animal treatment procedures described in this study were approved by the Animal Care and Use Committee at University of Wyoming (Laramie, Wyo.). Homozygous B6.Vlep/J male mice purchased from the Jackson Laboratory (Bar Harbor, Me.) at age 5 weeks were divided randomly into two weight-matched groups, marked as ob/ob(+/+) control and ob/ob(+/+) treatment (n=12). Number and age-matched normal C57 mice were used as lean control. All animals were maintained on conventional laboratory diet under well-controlled conditions of temperature (22±2° C.), humidity (55±5%) and 12 hours/12 hours light-dark cycle and had ad libitum access to water and standard rodent chow. Cr(D-Phe)3 was provided in the drinking water and, on the basis of water intake, was administered to provide an intake of about 150 μg/kg/day corresponding to about 10-15 μg elemental Cr/kg/day) for ob/ob(+/+) and lean treatment groups. […] The livers of these mice were frozen in liquid nitrogen immediately and stored at −80° C. until use. Blood was collected from the heart, and the serum was extracted by centrifuging the blood at 1000 g at 4° C. and stored at −80° C. Weights of body and other organs were measured with a standard laboratory scale.
# Liver tissues lysates were subjected to Western blot analysis as described hereinabove using phospho specific antibodies against Akt. Blots were then stripped and re-probed with antibodies directed against antibodies directed at the total protein.
# insulin receptor beta = experiment: Insulin-stimulated IRβ tyrosine phosphorylation, Western blot of 3T3-adipocyte lysates; type: cell-based, mouse
# Protocol: as §1
# Cells were lysed in RIPA buffer (150 mM NaCl, 0.25% sodium desoxycholate, 1% NP-40, 1 mM EDTA and 50 mM Tris, pH 7.2) containing 2 mM sodium vanadate, 1 μM PMSF, 1 μM sodium fluoride, 1 μg/ml aprotinin, 1 μg/ml leupeptin, and 1 μM pepstatin and sonicated to reduce the sample viscosity. The lysate was centrifuged at 15000×g for 15 minutes at 4° C. and the protein concentration in the supernatant was determined by the bicinchoninic acid method. Equivalent amounts of proteins were boiled in Laemmli sample buffer. Proteins 10-20 μg were separated on 7.5-10% polyacrylamide gel, and electrophoretically transferred to a nitrocellulose membrane. The membranes were incubated for 1 hour at room temperature in blocking buffer (5% w/v non-fat dry milk in tris buffered saline containing 0.1% Tween 20). Membranes were incubated in appropriate phospho-specific primary antibody for insulin receptor beta or Akt at 1:2500 dilutions in the blocking buffer followed by incubation with horseradish peroxidase-coupled secondary antibodies with appropriate specificity. Immunoreactive bands were visualized using enhanced chemiluminescence reagents (Cell Signaling Technology, Inc, Beverly, Mass.). […]
structure (smiles),measurement,setting,value
"N[C@H](Cc1ccccc1)C(=O)O.[Cr+3] [Cr(pa)3, chromium (III) D-phenylalanine]","blood glucose level after insulin-challenge, lean mice",ob/ob(+/+) mice [1],failed to further lower the blood glucose level
same,difference in body weight,[2]; ob/ob(+/+) mice treated vs untreated,no significant difference
same,"body-mass indices (body, heart, liver, kidney weights)","[2]; obese mice, 150 μg/kg/day six weeks",did not alter
same,DNA strand breaks (supercoiled to circular nicked pUC19),pUC19 DNA,failed to induce any strand breaks
same,malondialdehyde (lipid-peroxidation) in liver homogenate,ob/ob(+/+) mice [3],significantly lower
same,protein carbonyl formation in liver homogenate,ob/ob(+/+) mice [3],significantly lower
same,insulin-stimulated glucose uptake,"3T3-adipocytes; Cr(pa)3 5 and 25 μM, insulin 6 nM, vs insulin-stimulated untreated cells",significantly augmented
same,basal glucose uptake,3T3-adipocytes; absence of insulin,did not have any effect
same,levels of phospho-Akt in liver homogenate,"Akt; oral 150 μg/kg/day 6 weeks, basal",failed to significantly enhance
same,levels of total Akt protein in liver homogenate,Akt; oral treatment,Neither did the treatment alter
same,phosphorylation of insulin-receptors in liver,Akt; same blots reprobed for phosphorylated insulin receptor beta,no changes
same,protein levels of insulin receptor,insulin receptor beta; 3T3-adipocytes,does not increase
same,IRβ phosphorylation induced by submaximal insulin,insulin receptor beta; insulin 1 nM,not altered
